The values below come from patent US20250146074A1 (The General Hospital Corporation, priority 2023, published 2025).

Series [1] deals with Firmicutes CAG:176 thiolase (FcTHL, UniRef90 ID R6CZ24). In words: In vitro mass spectrometry end-point assay for 5-ASA acetylation. Format: biochemical, Firmicutes bacterium CAG:176. Particulars: 6 hr at 37° C., 1 mM of each substrate, 50 μM enzyme. The source says:
(§1) Having identified thiolase and acyl-CoA N-acetyltransferase superfamilies with potential 5-ASA-inactivating capabilities, we sought to biochemically confirm these predicted activities in vitro. […] We expressed the known NAT from Salmonella enterica, the candidate thiolase from Firmicutes CAG:176 (UniRef90 ID R6CZ24), and the acyl-CoA N-acetyltransferase from F. prausnitzii (UniRef90 ID C7H1G6) for further biochemical characterization (FIG. 14a). […] The known S. enterica enzyme served as a positive control (FIG. 14b).
(§2) Identities of the constructs were confirmed with DNA sequencing and then were transformed into E. coli BL21 strains for expression according to the standardized protocols from GenScript. All E. coli expression constructs were grown anaerobically in sealed Hungate tubes in Terrific Broth (VWR) supplemented with 5 mM MgSO4 and kanamycin (50 μg/mL) and were incubated at 37° C. overnight before dilution at 1:100 into fresh media the following morning. […]
(§3) The samples were injected into an Infinity Lab Poroshell120 Hilic column (2.1×100 mm 2.7 μm) at 25° C. […] For absolute quantification, all samples were normalized to the taurine internal standard and concentrations calculated against a standard curve.

Series [2] concerns Firmicutes CAG:176 thiolase (FcTHL). In words: Kinetic assay of 5-ASA acetylation. Format: biochemical, Firmicutes bacterium CAG:176. The note with it: 5-ASA varied, 1 mM acetyl-CoA, 5 μM enzyme, 37° C. The method, then: The samples were injected into an Infinity Lab Poroshell120 Hilic column (2.1×100 mm 2.7 μm) at 25° C. […] This was followed by a 3 second gradient to 40% mobile phase B. This was then followed by a 27 second gradient returning to 5% mobile phase A at a flow rate of 1200 μL/min. This flow rate and ratio was held for an additional 48 seconds. Additional column equilibration was carried out on a secondary pump for 117 seconds at 5% mobile phase A and a flow rate of 1000 μL/min. MS was conducted in negative ion mode using electrospray ionization. […] Other MS settings were as follows: heater temp 300° C., ESI nebulizer 45 psi, spray voltage 3.5 kV, acquisition time 100 ms/spectrum. […] For absolute quantification, all samples were normalized to the taurine internal standard and concentrations calculated against a standard curve.

For series [3] the following is noted: human, in vivo; cited from earlier work.
The next series relates to fecal metabolome. As to the kind of experiment: Fecal metabolome pre- and post-5-ASA in new users (IBDMDB). Format: in vivo, human. Particulars: stool pre- vs post-5-ASA. As for the experimental part: A portion of each selected stool sample (40-100 mg) and the entire volume of originating ethanol preservative were stored in 15-ml centrifuge tubes at −80° C. until all samples were collected. Samples were then thawed on ice and centrifuged (4° C., 5,000 g) for 5 min. Ethanol was evaporated using a gentle stream of nitrogen gas using a nitrogen evaporator (TurboVap LV; Biotage) and stored at −80° C. until all samples in the study had been dried. After a homogenization and vortexing process, the mixture was aliquoted and stored at −80° C. until LC-MS analyses.
A combination of four untargeted LC-MS methods were used to profile metabolites in the fecal homogenates, as previously published;^22 two methods that measure polar metabolites (a method that measures metabolites of intermediate polarity (for example, fatty acids and bile acids), and a lipid profiling method: 1) HILIC-pos (positive ion mode MS analyses of polar metabolites), 2) HILIC-neg (negative ion mode MS analysis of polar metabolites), 3) C18-neg (negative ion mode analysis of metabolites of intermediate polarity; for example, bile acids and free fatty acids), and 4) C8-pos. Lipids (polar and nonpolar). Additionally, pairs of pooled reference samples were inserted into the queue at intervals of approximately 20 samples for quality control and data standardization. […]
Raw LC-MS data were acquired to the data acquisition computer interfaced to each LC-MS system and then stored on a robust and redundant file storage system (Isilon Systems) accessed via the internal network at the Broad Institute. […] Identification of nontargeted metabolite LC-MS peaks was conducted by: i) matching measured retention times and masses to mixtures of reference metabolites analyzed in each batch; and ii) matching an internal database of >600 compounds that have been characterized using the Broad Institute methods. Temporal drift was monitored and normalized with the intensities of features measured in the pooled reference samples. […]

The conditions of series [4]: in vivo; cited from earlier work.
Series [5] relates to F. prausnitzii acyl-CoA N-acetyltransferase (FpGNAT, UniRef90 ID C7H1G6). As to the kind of experiment: In vitro mass spectrometry end-point assay for 5-ASA acetylation. It is filed as biochemical, Faecalibacterium prausnitzii. Particulars: 6 hr at 37° C., 1 mM of each substrate, 50 μM enzyme.
Description: as §1, §2, §3

Another series relates to colonic epithelial cells. The note with it: cited from earlier work.
The conditions of series [6]: in vivo; cited from earlier work. This is another data set of the same source.
The subject of series [7] is Firmicutes CAG:176 thiolase (FcTHL). In words: Promiscuity (substrate competition) assay of the thiolase with amine-containing xenobiotics. The note with it: 1 mM substrate, 5 μM enzyme, room temperature 1 hour. As for the experimental part:
Enzyme concentrations were calculated according to Beer's Law with extinction coefficients calculated by Benchling software based on the amino acid sequences of the putative enzymes. […] Reactions were conducted at 37° C. for 6 hours for the initial endpoint assay and room temperature for 1 hour for the promiscuity assay. Quenching/extraction for the promiscuity assay was with equal volumes of acetonitrile and methanol. Quenching/extraction for the end-point was one part sample and nine-parts extraction mix (75% acetonitrile:25% methanol v/v with 10 μM 1,2-^13C2-taurine from Cambridge Isotopes as an internal standard for quantification). Samples were vortexed and cooled to −20° C. and then centrifuged prior to LC-MS analysis.
For the promiscuity assays, mass spectrometry analyses were conducted using an LC-MS system composed of an Agilent 1260 Infinity HPLC (Agilent Technologies) coupled to a 6530 Accurate-Mass QTOF LC-MS (Agilent Technologies). The samples were injected into a 150×3 mm Hypersil GOLD aQ column (Thermo Scientific) at 30° C. […] Remaining identities were inferred using calculated masses with a mass detection tolerance of 10 ppm. Raw data from the LC-MS were analyzed using Agilent MassHunter Qualitative Analysis 10.0 software.

As a reminder, the Km is the substrate concentration at which the rate is half of its maximum. The term kcat denotes the number of substrate molecules converted per active site and unit of time at saturation.

With `Nc1ccc(O)c(C(=O)O)c1` [5-ASA, 5-aminosalicylic acid], the “conversion of 5-ASA to N-acetyl 5-ASA using acetyl-CoA” value in series [1] and in [5] was above 25% each time. Besides, in series [2] (+/−0.46 mM), the Km was found to be 1880 µM. Also, the kcat in series [2] (+/−0.0199) stood at 0.00108 s⁻¹. Besides, in series [3], the “IBD patients who fail to respond or eventually lose response” value is “over half”. For the same compound, the “abundance of fecal 2-aminoadipate following 5-ASA treatment” value with fecal metabolome (13 new users) is recorded as “reduced”. Further, in the series with fecal metabolome, the “abundance of fecal nicotinic acid (NA) with 5-ASA” value is on record as “dropped”. The “abundance of fecal nicotinuric acid (NUA) with 5-ASA” value with fecal metabolome was “dramatically increased”. Also, the “intraluminal stool concentrations of 5-ASA (median)” value in series [4] is reported as 30 mM.
As for `CC(=O)Nc1ccc(O)c(C(=O)O)c1` [N-acetyl 5-ASA], the “bioavailability to colonic epithelial cells” value in the series on colonic epithelial cells is recorded as below 5%. Besides, in [6], the “anti-inflammatory activity in placebo-controlled trials” value was “lacks anti-inflammatory activity”.
Consider `NNc1nncc2ccccc12` [hydralazine], for which, in [7], the “acetylation of the compound by the thiolase” value is “did not observe any acetylation”.
Turning to `CCN(CC)CCNC(=O)c1ccc(N)cc1` [procainamide], the “acetylation of the compound by the thiolase” value in series [7] is recorded as “did not observe any acetylation”.
